Results: patent US20220380341A1, “INHIBITORS OF HIV-1 NEF FOR THE TREATMENT OF HIV DISEASE” (priority 2018, published 2022)
Like-named read-outs stand apart in the source and are kept apart here.

Key:
HIV-1 NefNL4-3 = HIV-1 NefNL4-3 (Human immunodeficiency virus type 1 group M subtype B, UniProt P03406, A33V/T15A/T51N/V11I); assay: Surface plasmon resonance binding to recombinant full-length Nef (NL4-3); conditions: for Nef NL4-3 Binding, SPR 1:1 or 2-site fitting KD1: 1:1 Langmuir fit where the KD2 cell says '1 to 1 fitting', else 2-site fit; for T, minutes (residence time): 2-step induced fit, T = 1/koff2; for RU30/RUNef (extent of binding): response units at 30 μM relative to Nef immobilized on the SPR chip
TZM-bl cell line = type: cell-based; conditions: human, 1 μM
Procedure, shortened: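 TZM-bl cells (HIV-1 LTR-luciferase) infected with HIV-1NL4-3 with compound at 1 μM; luciferase read 48 h later. Percent inhibition normalized to DMSO wild-type infection (0%) and Nef-defective HIV-1 infection (100% of Nef-dependent effect). Viability in uninfected TZM-bl cells by Cell Titer Blue.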

HIV-1NL4-3 = assay: HIV-1 infectivity assay in TZM-bl reporter cell line (LTR-luciferase, 48 h); type: cell-based; conditions: Human immunodeficiency virus 1, TZM-bl
Procedure, shortened: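 Read-out is luciferase from an integrated HIV-1 LTR reporter in TZM-bl cells, 48 h after HIV-1NL4-3 infection in the presence of 1 μM compound. Scale set by DMSO-treated wild-type-infected cells (0%) and Nef-defective virus (100% Nef-dependent effect). Cell Titer Blue measures cytotoxicity without virus.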

[1] = 48 h, Table 1, TZM-bl cells, 1 μM, 48 h, 100% = Nef-defective HIV-1, read-out: HIV-1 Infectivity % Inhibition Norm. to Δ-Nef @ 1 μM
[2] = KD, M, Table 4, SPR fit 2-step induced fit, KD = koff/kon × koff2/(koff2 + kon2)
[3] = Nef NL4-3 Binding, SPR 2-state fitting KD, Table 1, 2-step induced-fit model
[4] = 1.0 μM, TZM-bl reporter cell line, Table 4, read-out: % Infectivity Inhibition
[5] = read-out: Nef NL4-3 Binding, SPR 1:1 or 2-site fitting KD2, Table 1, 2-site fit, second component

Row | Compound | Nef NL4-3 Binding, SPR 1:1 or 2-site fitting KD1 (HIV-1 NefNL4-3; Table 1) | Percent Viability @ 1 μM (TZM-bl cells) (TZM-bl cell line) | inhibition at 1 µM (HIV-1NL4-3; [1]) | Kd (HIV-1 NefNL4-3) | Kd (HIV-1 NefNL4-3; [2]) | Kd (HIV-1 NefNL4-3; Nef NL4-3 Binding, SPR 1:1 or 2-site fitting KD2, Table 1, 2-site fit, second component) | Kd (HIV-1 NefNL4-3; [3]) | T, minutes (residence time) (HIV-1 NefNL4-3; Table 4) | RU30/RUNef (extent of binding) (HIV-1 NefNL4-3) | % Cell Viability (TZM-bl cell line) | inhibition at 1 µM (HIV-1NL4-3; [4]) | Kd (HIV-1 NefNL4-3; [5])
1 | CO[C@H](C)C(=O)N1CCC(c2nn(-c3nc4ccccc4[nH]3)c(O)c2CCc2ccc(F)cc2)CC1 [Compound I-727, (2R)-1-{4-[1-(1H-1,3-benzodiazol-2-yl)-4-[2-(4-fluorophenyl)ethyl]-5-hydroxy-1H-pyrazol-3-yl]piperidin-1-yl}-2-methoxypropan-1-one] | No Interaction | 95.1% | 8.7% | – | – | – | – | – | – | – | – | –
2 | O=C(c1cnccn1)N1CCC(c2nn(-c3nc4ccccc4[nH]3)c(O)c2CCc2ccc(F)cc2)CC1 [Compound I-728, 1-(1H-1,3-benzodiazol-2-yl)-4-[2-(4-fluorophenyl)ethyl]-3-[1-(pyrazine-2-carbonyl)piperidin-4-yl]-1H-pyrazol-5-ol] | – | 99.1% | 53.7% | 142 nM | – | – | – | – | – | – | – | –
3 | O=C(c1ccccn1)N1CCC(c2nn(-c3nc4ccccc4[nH]3)c(O)c2CCc2ccc(F)cc2)CC1 [Compound I-730, 1-(1H-1,3-benzodiazol-2-yl)-4-[2-(4-fluorophenyl)ethyl]-3-[1-(pyridine-2-carbonyl)piperidin-4-yl]-1H-pyrazol-5-ol] | No Interaction | 95.1% | 24.6% | – | – | – | – | – | – | – | – | –
4 | O=C(c1cccc(O)n1)N1CCC(c2nn(-c3nc4ccccc4[nH]3)c(O)c2CCc2ccc(F)cc2)CC1 [Compound I-731, 6-{4-[1-(1H-1,3-benzodiazol-2-yl)-4-[2-(4-fluorophenyl)ethyl]-5-hydroxy-1H-pyrazol-3-yl]piperidine-1-carbonyl}pyridin-2-ol] | No Interaction | 98.9% | 11.5% | – | – | – | – | – | – | – | – | –
5 | CC[C@H](C)[C@H](O)C(=O)N1CCC(c2nn(-c3nc4ccccc4[nH]3)c(O)c2CCc2ccc(F)cc2)CC1 [Compound I-732, (2S,3S)-1-{4-[1-(1H-1,3-benzodiazol-2-yl)-4-[2-(4-fluorophenyl)ethyl]-5-hydroxy-1H-pyrazol-3-yl]piperidin-1-yl}-2-hydroxy-3-methylpentan-1-one] | – | 91.0% | 85.5% | 630 nM | 4210 nM | 1770 nM | 4210 nM | 3.78E + 00 minutes | 3.09E- 03 | 91.0% | 85.5% | –
6 | CC[C@H](O)C(=O)N1CCC(c2nn(-c3nc4ccccc4[nH]3)c(O)c2CCc2ccc(F)cc2)CC1 [Compound I-733, (2S)-1-{4-[1-(1H-1,3-benzodiazol-2-yl)-4-[2-(4-fluorophenyl)ethyl]-5-hydroxy-1H-pyrazol-3-yl]piperidin-1-yl}-2-hydroxybutan-1-one] | – | 98.8% | 56.5% | 26900 nM | – | – | – | – | – | – | – | –
7 | O=C(Cc1ccncc1)N1CCC(c2nn(-c3nc4ccccc4[nH]3)c(O)c2CCc2ccc(F)cc2)CC1 [Compound I-734, 1-{4-[1-(1H-1,3-benzodiazol-2-yl)-4-[2-(4-fluorophenyl)ethyl]-5-hydroxy-1H-pyrazol-3-yl]piperidin-1-yl}-2-(pyridin-4-yl)ethan-1-one] | – | 96.0% | -8.2% | 576 nM | – | – | – | – | – | – | – | –
8 | O=C(C1CCC(O)CC1)N1CCC(c2nn(-c3nc4ccccc4[nH]3)c(O)c2CCc2ccc(F)cc2)CC1 (centres unmarked) [Compound I-735, 1-(1H-1,3-benzodiazol-2-yl)-4-[2-(4-fluorophenyl)ethyl]-3-[1-(4-hydroxycyclohexanecarbonyl)piperidin-4-yl]-1H-pyrazol-5-ol] | – | 96.9% | 38.8% | 46.9 nM | 0.498 nM | – | 0.498 nM | 6.44E + 03 minutes | 6.53E- 03 | 96.9% | 38.8% | 2800 nM
9 | O=C(C1CCOC1)N1CCC(c2nn(-c3nc4ccccc4[nH]3)c(O)c2CCc2ccc(F)cc2)CC1 (centres unmarked) [Compound I-736, 1-(1H-1,3-benzodiazol-2-yl)-4-[2-(4-fluorophenyl)ethyl]-3-[1-(oxolane-3-carbonyl)piperidin-4-yl]-1H-pyrazol-5-ol] | – | 96.0% | 7.5% | 99.3 nM | 2.06 nM | – | 2.06 nM | 1.97E + 03 minutes | 1.02E- 02 | 96.0% | 7.5% | 1940 nM
10 | O=C(c1ccoc1)N1CCC(c2nn(-c3nc4ccccc4[nH]3)c(O)c2CCc2ccc(F)cc2)CC1 [Compound I-737, 1-(1H-1,3-benzodiazol-2-yl)-4-[2-(4-fluorophenyl)ethyl]-3-[1-(furan-3-carbonyl)piperidin-4-yl]-1H-pyrazol-5-ol] | – | 93.0% | -4.8% | 0.00489 nM | 1.7 nM | – | 1.7 nM | 9.06E + 03 minutes | 1.36E- 02 | 93.0% | 0% | 4000 nM
11 | O=C1NC(=O)C(CC(=O)N2CCC(c3nn(-c4nc5ccccc5[nH]4)c(O)c3CCc3ccc(F)cc3)CC2)N1 (centres unmarked) [Compound I-738, 5-(2-{4-[1-(1H-1,3-benzodiazol-2-yl)-4-[2-(4-fluorophenyl)ethyl]-5-hydroxy-1H-pyrazol-3-yl]piperidin-1-yl}-2-oxoethyl)imidazolidine-2,4-dione] | No Interaction | 100.4% | -9.9% | – | – | – | – | – | – | – | – | –
12 | CN(C)C(=O)N1CCC(c2nn(-c3nc4ccccc4[nH]3)c(O)c2CCC2CCOCC2)CC1 [Compound I-739, 4-[1-(1H-1,3-benzodiazol-2-yl)-5-hydroxy-4-[2-(oxan-4-yl)ethyl]-1H-pyrazol-3-yl]-N,N-dimethylpiperidine-1-carboxamide] | No Interaction | 100.0% | -7% | – | – | – | – | – | – | – | – | –
13 | COC(=O)N1CCC(c2nn(-c3nc4ccccc4[nH]3)c(O)c2CCc2ccc(F)cc2)CC1 [Compound I-740, methyl 4-[1-(1H-1,3-benzodiazol-2-yl)-4-[2-(4-fluorophenyl)ethyl]-5-hydroxy-1H-pyrazol-3-yl]piperidine-1-carboxylate] | – | 89.8% | 39.1% | 157 nM | 544 nM | – | 544 nM | 1.26E + 01 minutes | 7.81E- 03 | 89.8% | 39.1% | 3380 nM
14 | O=S(=O)(c1cccnc1)N1CCC(c2nn(-c3nc4ccccc4[nH]3)c(O)c2CCc2ccc(F)cc2)CC1 [Compound I-742, 1-(1H-1,3-benzodiazol-2-yl)-4-[2-(4-fluorophenyl)ethyl]-3-[1-(pyridine-3-sulfonyl)piperidin-4-yl]-1H-pyrazol-5-ol] | – | 77.3% | 125% | – | 0.00143 nM | – | 0.00143 nM | – | 2.76E- 03 | 77.3% | 100% | 56200 nM
15 | CC(=O)N1CCC(c2nn(-c3nc4ccccc4[nH]3)c(O)c2Cc2ccc(F)c(F)c2)CC1 [Compound I-744, 1-{4-[1-(1H-1,3-benzodiazol-2-yl)-4-[(3,4-difluorophenyl)methyl]-5-hydroxy-1H-pyrazol-3-yl]piperidin-1-yl}ethan-1-one] | – | 98.2% | 51.2% | 23.5 nM | 1950 nM | – | 1950 nM | 5.61E + 00 minutes | 4.92E- 03 | 98.2% | 51.2% | 7280 nM
16 | CC(C)(O)C(=O)N1CCC(c2nn(-c3nc4ccccc4[nH]3)c(O)c2CCc2ccc(F)cc2)CC1 [Compound I-745, 1-{4-[1-(1H-1,3-benzodiazol-2-yl)-4-[2-(4-fluorophenyl)ethyl]-5-hydroxy-1H-pyrazol-3-yl]piperidin-1-yl}-2-hydroxy-2-methylpropan-1-one] | – | 100.0% | 23.8% | 10100 nM | – | – | – | – | – | – | – | –
